Patent US20250339567A1, “COMPOUNDS WITH IMPROVED PHARMACOKINETICS FOR IMAGING AND THERAPY OF CANCER” (priority 2019, published 2025)
Entries after “also recorded” stand apart in the source; their conditions may differ. Where two headings read alike, the source gives them in different places. Starred links: 1 amine or outer side, 2 acyl side, 3 side chain; linkers in the order of their positions; H or OH if unused. Non-standard residues stand in square brackets, D forms with d. Residues, ends and D or L forms follow the SMILES beside them. *: point of attachment. DOTA = O=C(O)CN1CCN(CC(=O)O)CCN(CC(=O)*)CCN(CC(=O)O)CC1; Sta = CC(C)C[C@H](N)[C@@H](O)CC(=O)O; Bta = N[C@@H](Cc1csc2ccccc12)C(=O)O; X1 = O=C(CN1CCC(N[*:1])CC1)[*:2]

What was measured:
PC-3 cells = assay: Internalization into PC-3 cells; assay type: cell-based; details: c = 1 nM, 1 h, 37° C., corrected for non-specific binding (10^-3 M [natLu]RM2)
Description: For internalization studies, PC-3 cells are harvested 24±2 h before the experiment and seeded in 24-well plates (1.5×10^5 cells/well, 1 mL). Subsequent to the removal of the culture medium, the cells are washed once with 500 μL DMEM/F-12 (5% BSA) and left to equilibrate at 37° C. for at least 15 min in 200 μL DMEM/F-12 (5% BSA). […] Next, 25 μL of the ^125I/^177Lu-labeled GRPR ligand (10 nm) is added and the cells are incubated at 37° C. for 60 min.
The experiment is terminated by placing the 24-well plate on ice for 1 min and consecutive removal of the medium. Each well is rinsed with 300 μL ice-cold PBS and the fractions from these first two steps are combined, representing the amount of free radiolabeled reference. Removal of surface bound activity is accomplished by incubation of the cells with 300 μL of ice-cold Acid Wash solution (0.02 M NaOAc, pH=5.0) for 10 min at room temperature and rinsed again with 300 μL of ice-cold PBS. The internalized activity is determined by incubation of the cells in […] NaOH (1 M) and the combination with the fraction of a subsequent washing step with 300 μL NaOH (1 M).
Each experiment (control and blockade) is performed sixfold. Free, surface bound and internalized activity is quantified in a γ-counter. Data is corrected for non-specific internalization.

[1] = n-Octanol-PBS distribution coefficient, log D7.4; assay type: physicochemical; details: n-octanol/PBS pH 7.4; for log D7.4 ± SD (n = 8): 177Lu-labeled ligand
Description: Approximately 1 MBq of the labeled tracer was dissolved in 1 mL of a 1:1 mixture (v/v) of phosphate buffered saline (PBS, pH=7.4) and n-octanol in an Eppendorf tube. After vigorous mixing of the suspension for 3 min at room temperature, the vial was centrifuged at 9000 rpm for 5 min (Biofuge 15, Heraus Sepatech, Osterode, Germany) and 200 μL aliquots of both layers were measured in a γ-counter. The experiment was repeated at least four times.

GRPR = biological target: T1, GRPR (Homo sapiens, UniProt P30550); assay: Determination of GRPR affinity (IC50), competition with [D-3-[125I]I-Tyr6]MJ9 on PC-3 cells; assay type: binding
T1 construct: endogenous in cells; host or cells: PC-3 cells
Description: The reference ligand for IC50 studies ([D-3-[^125I]I-Tyr^6]MJ9) is prepared according to a previously published procedure. Briefly, 0.2 mg of [D-Tyr^6]MJ9 are dissolved in 20 μL Tracepur water and 280 μL TRIS buffer (25 mm TRIS HCl, 0.4 M NaCl, pH=7.9). After addition of the solution to a vial containing 150 μg Iodo-Gen® (1,3,4,6-Tetrachloro-3α,6α-diphenylglycouril, surface-bound), 5.0 μL (16 MBq) [^125I]Nal(74 TBq/mmol, 3.1 GBq/mL, 40 mM NaOH, Hartmann Analytic, Braunschweig, Germany) are added.
The GRPR-positive PC-3 cells are cultured in Dublecco modified Eagle medium/Nutrition Mixture F-12 with Glutamax-I (1:1) (Invitrigon), supplemented with 10% fetal calf serum and maintained at 37° C. in a humidified 5% CO2 atmosphere.
After removal of the culture medium, the cells are washed once with 500 μL of HBSS (Hank's balanced salt solution, Biochrom, Berlin, Germany, with addition of 1% bovine serum albumin (BSA)) and left in 200 μL HBSS (1% BSA) for 9 min at room temperature for equilibration. Next, 25 μL per well of solutions, containing either HBSS (1% BSA) as control or the respective ligand in increasing concentration (10^−10 M-10^−4 M in HBSS), are added with subsequent addition of 25 μL of [D-3-[^125I]I-Tyr^6]MJ9 (2.0 nM) in HBSS (1% BSA).
All experiments are performed in triplicate for each concentration. After 2 h incubation at room temperature, the experiment is terminated by removal of the medium and consecutive rinsing with 300 μL of HBSS. The media of both steps are combined in one fraction and represent the amount of free radiolabeled reference. Afterwards, the cells are lysed with 300 μL of 1 M NaOH for at least 15 min and united with the 300 μL NaOH of the following washing step. Quantification of bound and free radiolabeled reference is accomplished in a γ-counter.
IC50 determination for each ligand was repeated twice.

[2] = Plasma studies: metabolic stability in vitro in human plasma (radio RP-HPLC); assay type: in vitro ADME
Procedure, shortened: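 Radiotracer incubated in human or murine plasma at 37° C. immediately after labeling, for 72±2 h or 6±0.5 h. Proteins precipitated with ice-cold EtOH and MeCN and centrifuged. Supernatant analysed by radio RP-HPLC.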

[3] = test system: PC-3 tumor-bearing CB17-SCID mice; assay: Biodistribution in PC-3 tumor-bearing CB17-SCID mice; assay type: in vivo
Description: All animal experiments were conducted in accordance with general animal welfare regulations in Germany (German animal protection act, as amended on 18 May 2018, Art. 141 G v. 29.3.2017 | 626, approval no. ROB-55.2-2532.Vet_02-18-109) and the institutional guidelines for the care and use of animals. To establish tumor xenografts, PC-3 cells (5×10^6 cells per 200 μL) were suspended in a 1:1 mixture (v/v) of Dulbecco's modified eagle's medium/Ham's F-12 (DMEM/F-12) with Glutamax-I (1:1) and Cultrex® Basement Membrane Matrix Type 3 (Trevigen Inc., Gaithersburg, MD, USA) and inoculated subcutaneously onto the right shoulder of 6-10 weeks old female CB17-SCID mice (Charles River Laboratories International Inc., Sulzfeld, Germany). Mice were used for experiments when tumor volume was 125-500 mm^3 (2-3 weeks after inoculation).
Approximately 1-5 MBq ([…]) of the radiolabeled GRPR antagonists were injected into the tail vein of PC-3 tumor-bearing mice and sacrificed at 1, 4 or 24 h p.i. (n=4). Selected organs were removed, weighted and measured in a γ-counter (Perkin Elmer, Waltham, MA, USA).

[4] = Plasma studies: metabolic stability in vitro in murine plasma (radio RP-HPLC); assay type: in vitro ADME; details: 37° C.
Description: Metabolic stability in vitro was determined applying a procedure published by Linder et al. that was slightly modified. Immediately after labeling, human (200 μL) or murine (100 μL) plasma was added and the mixture was incubated at 37° C. for 72±2 h (or 6±0.5 h). Proteins were precipitated by treatment with ice-cold EtOH (150 μL [human], 100 μL [murine]) and ice-cold MeCN (450 μL [human], 300 μL [murine]), followed by centrifugation for 20 min at 13000 rpm. The supernatants were decanted and further analyzed using radio RP-HPLC.
Therefore, only 100 μL of murine plasma was added to the tracer solution (final volume of 200 μL) immediately after labeling was finished. According to Linder et al. (Bioconjugate Chem. 20, 1171-1178 (2009)), metabolism is more rapid in murine than in human plasma for which reason the experiment was terminated after incubation at 37° C. for 6±0.5 h (FIGS. 5 and 6). Nevertheless, due to a smaller volume the murine mixture was additionally examined after incubation at 37° C. for 72±2 h (FIGS. 7 and 8).

[5] = IC50 [nM] ± SD (n = 3), ^177Lu-labeled, Table 1C, GRPR affinity
[6] = IC50 ± SD (n = 3), Table 3, [D-3-[125I]I-Tyr6]MJ9 (c = 0.2 nM), 2 h, r.t., HBSS + 1% BSA
[7] = human plasma, 37° C., 72±2 h, FIGS. 1-4

T1 sequence (P30550 whole entry): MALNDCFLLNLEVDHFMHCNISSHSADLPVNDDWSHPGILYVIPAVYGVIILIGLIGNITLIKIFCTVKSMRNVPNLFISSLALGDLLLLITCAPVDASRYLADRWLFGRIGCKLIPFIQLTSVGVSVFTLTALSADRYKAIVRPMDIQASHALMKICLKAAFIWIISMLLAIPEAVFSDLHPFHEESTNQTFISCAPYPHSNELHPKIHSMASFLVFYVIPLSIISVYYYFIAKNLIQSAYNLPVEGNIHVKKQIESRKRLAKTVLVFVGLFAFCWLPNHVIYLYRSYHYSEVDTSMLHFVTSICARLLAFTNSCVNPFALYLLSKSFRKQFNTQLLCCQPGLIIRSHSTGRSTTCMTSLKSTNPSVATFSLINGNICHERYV

| log D7.4 ± SD (n = 8) [1] | IC50 (GRPR; [5]) | IC50 (GRPR; [6]) | Amount of intact tracer after incubation in human plasma for 72 ± 2 h (n = 2) [2] | metabolite, first-eluting peak in chromatogram [2] | metabolite, second peak in chromatogram [2] | remaining intact tracer in chromatogram ([2]; human, plasma, 2 h) | log D7.4 (n = 6), ^99mTc-labeled [1] | Compound | Specific internalization (mean ± SD, n = 6) (PC-3 cells) | other results |
| --- | --- | --- | --- | --- | --- | --- | --- | --- | --- | --- |
| −1.81 ± 0.02 | 4.6 ± 0.2 nM | 4.63 ± 0.23 nM | 18.3 ± 2.3 | 79% | 8% | 12% | – | CC(C)C[C@H](NC(=O)C[C@H](O)[C@H](CC(C)C)NC(=O)[C@H](Cc1c[nH]cn1)NC(=O)CNC(=O)[C@@H](NC(=O)[C@H](C)NC(=O)[C@H](Cc1csc2ccccc12)NC(=O)[C@H](CCC(N)=O)NC(=O)[C@@H](Cc1ccccc1)NC(=O)CN1CCC(NC(=O)CN2CCN(CC(=O)O)CCN(CC(=O)O)CCN(CC(=O)O)CC2)CC1)C(C)C)C(N)=O [DOTA-[Bta^8]MJ9] ({DOTA}-[X1][dF]Q[Bta]AVGH[Sta]L-NH2) | 2.26 ± 0.18 % of the used activity | – |
| −2.25 ± 0.06 | 19.7 ± 1.6 nM | – | 40.1 ± 1.4 | 30% | 8% | 56% | – | CC(C)C[C@H](NC(=O)C[C@H](O)[C@H](CC(C)C)NC(=O)[C@H](Cc1c[nH]cn1)NC(=O)CNC(=O)[C@@H](NC(=O)[C@H](C)NC(=O)[C@H](Cc1c[nH]c2ccccc12)NC(=O)[C@H](CCO)NC(=O)[C@@H](Cc1ccccc1)NC(=O)CN1CCC(NC(=O)CN2CCN(CC(=O)O)CCN(CC(=O)O)CCN(CC(=O)O)CC2)CC1)C(C)C)C(N)=O [DOTA-[Hse^7]MJ9] | 1.40 ± 0.16 % of the used activity | – |
| – | – | – | – | – | – | – | −1.26 ± 0.02 | CC(C)C[C@H](NC(=O)C[C@H](O)[C@H](CC(C)C)NC(=O)[C@H](Cc1c[nH]cn1)NC(=O)CNC(=O)[C@@H](NC(=O)[C@H](C)NC(=O)[C@H](Cc1c[nH]c2ccccc12)NC(=O)[C@H](CCO)NC(=O)[C@@H](Cc1ccccc1)NC(=O)CN1CCC(NC(=O)C(CNCCN)CNCCN)CC1)C(C)C)C(N)=O [N4-[Hse^7]MJ9] | – | tumor-to-background ratios ([3]; mouse, in vivo): highest; IC50 (GRPR; IC50 [nM] ± SD (n = 3), Table 5, non-labeled N4 ligands, [D-3-[125I]I-Tyr6]MJ9 (c = 0.2 nM), 2 h, r.t.): 6.97 ± 1.84 nM |
| – | – | – | – | – | – | – | −1.29 ± 0.08 | CC(C)C[C@H](NC(=O)C[C@H](O)[C@H](CC(C)C)NC(=O)[C@H](Cc1c[nH]cn1)NC(=O)CNC(=O)[C@@H](NC(=O)[C@H](C)NC(=O)[C@](C)(Cc1c[nH]c2ccccc12)NC(=O)[C@H](CCC(N)=O)NC(=O)[C@@H](Cc1ccccc1)NC(=O)CN1CCC(NC(=O)C(CNCCN)CNCCN)CC1)C(C)C)C(N)=O [N4-[α-Me-Trp^8]MJ9] | – | tumor accumulation at 4 h p.i. compared to 1 h p.i. ([3]; mouse, in vivo): enhanced tumor accumulation compared to 1 h p.i. |
| – | – | – | – | – | – | – | – | CC(C)C[C@H](NC(=O)C[C@H](O)[C@H](CC(C)C)NC(=O)[C@H](Cc1c[nH]cn1)NC(=O)CNC(=O)[C@@H](NC(=O)[C@H](C)NC(=O)[C@H](Cc1c[nH]c2ccccc12)NC(=O)[C@H](CCC(N)=O)NC(=O)[C@@H](Cc1ccccc1)NC(=O)CN1CCC(NC(=O)CN2CCN(CC(=O)O)CCN(CC(=O)O)CCN(CC(=O)O)CC2)CC1)C(C)C)C(N)=O [RM2, DOTA-Pip-D-Phe-Gln-Trp-Ala-Val-Gly-His-Sta-Leu-NH2] | – | tumor retention ([3]; 177Lu-labeled, 24 h p.i., 100 pmol, FIGS. 11, 18, listed as [^177Lu]RM2): high amounts; also recorded: higher tumor retention than the other derivatives of this series; metabolite, first-eluting peak in chromatogram ([4]; 6±0.5 h): 2%; metabolite, second peak in chromatogram ([4]; 6±0.5 h): 2%; metabolite, third peak in chromatogram ([4]; 6±0.5 h): 4%; remaining intact tracer in chromatogram ([4]; 6±0.5 h, FIGS. 5-6): 92%; remaining intact tracer in chromatogram ([4]; 72±2 h, FIGS. 7-8): 67%; Amount of intact tracer after incubation in human plasma for 72 ± 2 h (n = 2) ([2]; Table 1C, 177Lu-labeled, 37° C., 72 ± 2 h, in % (unit assumed)): 33.5 ± 2.7; amount of intact tracer (in vitro stability), mean ± SD ([2]; human plasma, 37° C., 72±2 h): 33.5±2.7%; metabolite, first-eluting peak in chromatogram [2, 7]: 54%; metabolite, second peak in chromatogram [2, 7]: 9%; remaining intact tracer in chromatogram ([2]; human plasma, 37° C., 72±2 h, single chromatogram (FIGS. 1-4)): 36% |
| – | – | 1.33 ± 0.36 nM | – | – | – | – | – | CC(C)C[C@H](NC(=O)C[C@H](O)[C@H](CC(C)C)NC(=O)[C@H](Cc1c[nH]cn1)NC(=O)CNC(=O)[C@@H](NC(=O)[C@H](C)NC(=O)[C@H](Cc1c[nH]c2ccccc12)NC(=O)[C@H](CCC(N)=O)NC(=O)[C@@H](Cc1ccc(O)c(I)c1)NC(=O)CN1CCC(N)CC1)C(C)C)C(N)=O [[D-3-I-Tyr^6]MJ9, reference compound] | 3.57 ± 0.57 % of the used activity | IC50 ± SD (n = 3) (GRPR; Table 3, [D-3-[125I]I-Tyr6]MJ9 (c = 0.2 nM), 2 h, r.t., HBSS + 1% BSA): particularly high affinity |
